From PMC9485985 (Journal of Innate Immunity, 2021)
Peptide text beside a SMILES is read from it.

Tests used:
RAW264.7 cells = test: Uptake of TAMRA-labeled TCPs, flow cytometry; format: cell-based, murine; conditions: Fig. 1d, inhibitor 30 min then 2 µM T-GKY25 1 h, n = 3-4
0.5% whole blood = conditions: ref [5], [7], [11], [12], [38]; cited from earlier work
[1] = ref [11]; cited from earlier work

CN(C)c1cccc2c(S(=O)(=O)NCCCCCN)cccc12 [dansylcadaverine, Dansylcadaverine]
effect of inhibitor on uptake of T-GKY25 (RAW264.7 cells): did not show any effect

CC[C@H](C)[C@H](NC(=O)[C@H](Cc1c[nH]c2ccccc12)NC(=O)[C@H](CCCCN)NC(=O)[C@H](CCCCN)NC(=O)[C@H](CC(C)C)NC(=O)[C@H](CCCNC(=N)N)NC(=O)[C@H](Cc1ccccc1)NC(=O)[C@@H](NC(=O)[C@@H](N)Cc1cnc[nH]1)C(C)C)C(=O)N[C@@H](CCC(N)=O)C(=O)N[C@@H](CCCCN)C(=O)N[C@H](C(=O)N[C@H](C(=O)N[C@@H](CC(=O)O)C(=O)N[C@@H](CCC(N)=O)C(=O)N[C@@H](Cc1ccccc1)C(=O)NCC(=O)N[C@@H](CCC(=O)O)C(=O)O)[C@@H](C)CC)C(C)C [HVF18] (H-HVFRLKKWIQKVIDQFGE-OH)
concentration from which hemolysis is induced (0.5% whole blood): > 80 µM

WFFFYYLIIGGGVVTHQQRKKKKDE [WFF25]
immunomodulatory effects [1]: did not show any immunomodulatory effects
